Where only a bound is given, the exact number is not on record here.

The results in this text go back to patent publication US20110178041A1, “HETEROCYCLIC BIARYL DERIVATIVE AND PDE INHIBITOR COMPRISING SAME AS ACTIVE INGREDIENT” (priority 2008, published 2011).

Test [1] deals with T1, PDE4B catalytic zone (PDE4Bcat) (Homo sapiens, UniProt Q07343).
T1 construct: made in house; host or cells: Sf9 insect cells (baculovirus, Bac-to-Bac / Gateway)
The experiment in a line: Phosphodiesterase 4 inhibitory activity ([3H]-cAMP, recombinant PDE4Bcat). In kind it is biochemical. The following applies: 30° C. 20 minutes, read-out: IC50 (μmol/L) PDE4.

Test [2] has as its target T2, PDE3A catalytic zone (PDE3Acat) (Homo sapiens, UniProt Q14432).
T2 construct: made in house; host or cells: Sf9 insect cells (baculovirus, Bac-to-Bac / Gateway)
The test can be described thus: Phosphodiesterase 3-inhibitory activity ([3H]-cAMP, recombinant PDE3Acat). In kind it is biochemical. The conditions noted are these: 30° C. 20 minutes, read-out: IC50 value, PDE3.

Test [3] has as its system LPS-induced pulmonary inflammation (total leukocytes in BALF). The test can be described thus: LPS-induced pulmonary inflammation in rats. The conditions noted are these: Leukocyte; rat, 3 mg/kg oral one hour before LPS inhalation, BALF 3 hours after LPS; read-out: rate of inhibition of total number of leukocytes in BALF. In kind it is in vivo. How it is done: One hour before the inhalation of lipopolysaccharide from E. coli serotype 055:B5 (LPS), each candidate compound was orally administered to each test rat in a dose of 3 mg/kg, and then the test animal was allowed to inhale an LPS solution (50 mL) over 30 minutes, while the solution was atomized using a nebulizer. After 3 hours from the LPS-inhalation, the rats were euthanized by the administration of a 20% urethane solution (5 ml/rat, i.p.). The bronchial cannula was inserted through the trachea. Broncoalveolar lavage was performed by injecting 5 ml physiological saline, three consecutive times using a 5 mL volume syringe. The operations were repeated twice and these physiological saline samples were recovered as broncoalveolar lavage fluid (BALF). Each of the BALF thus recovered was centrifuged at 1200 rpm and 4° C. for 10 minutes (Hirtachi; himac […]), the resulting residue was again suspended in 10 mL of 0.1% bovine serum albumin-containing physiological saline, an equivalent volume of Turk's diluting fluid was added to the suspension to thus stain the leukocytes present therein and the total number of leukocytes was determined under the microscopic observation to thus calculate the rate of inhibition.

T1 sequence (Q07343 330-659 limits assumed): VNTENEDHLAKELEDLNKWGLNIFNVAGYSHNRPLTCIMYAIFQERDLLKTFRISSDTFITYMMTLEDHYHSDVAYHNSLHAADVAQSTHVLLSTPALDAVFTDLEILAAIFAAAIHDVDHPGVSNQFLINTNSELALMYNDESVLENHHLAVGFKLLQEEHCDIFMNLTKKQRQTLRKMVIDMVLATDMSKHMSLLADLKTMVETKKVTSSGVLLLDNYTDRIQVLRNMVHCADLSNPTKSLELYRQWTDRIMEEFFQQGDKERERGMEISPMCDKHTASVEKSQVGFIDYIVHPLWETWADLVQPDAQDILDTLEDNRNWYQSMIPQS
T2 sequence (Q14432 674-1093 limits assumed): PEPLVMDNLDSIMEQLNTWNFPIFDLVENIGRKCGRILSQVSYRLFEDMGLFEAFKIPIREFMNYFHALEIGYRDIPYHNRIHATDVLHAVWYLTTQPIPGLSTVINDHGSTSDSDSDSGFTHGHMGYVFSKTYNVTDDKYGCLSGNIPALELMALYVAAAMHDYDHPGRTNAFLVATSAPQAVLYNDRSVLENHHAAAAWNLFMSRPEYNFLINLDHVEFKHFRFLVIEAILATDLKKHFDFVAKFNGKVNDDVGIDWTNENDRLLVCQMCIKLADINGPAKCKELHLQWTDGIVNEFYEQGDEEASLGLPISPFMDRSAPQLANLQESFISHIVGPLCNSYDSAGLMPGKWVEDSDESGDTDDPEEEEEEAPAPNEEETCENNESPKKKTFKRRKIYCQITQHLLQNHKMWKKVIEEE

For the molecule `COc1ccc(-c2ccc3c(c2)CCNC3=O)c2cc(C(F)(F)F)nn12` [Example 58, 6-(7-Methoxy-2-trifluoromethylpyrazolo[1,5-a]pyridin-4-yl)-3,4-dihydroisoquinolin-1(2H)-one], the values for the IC50 in test [1] and in test [2] were 0.01 to 0.1 µmol/L and above 1000 nM, respectively. Besides, the inhibition in vivo at 3 mg/kg in test [3] was at least 60%.

Consider `COc1ccc(-c2ccc3c(c2)CNC3=O)c2cc(C(F)(F)F)nn12` [Example 59, 5-(7-Methoxy-2-trifluoromethylpyrazolo[1,5-a]pyridin-4-yl)isoindolin-1-one], for which the IC50 was 0.01 to 0.1 µmol/L in test [1] and above 1000 nM in test [2]. Also, in test [3], the inhibition in vivo at 3 mg/kg is at least 60%.

Regarding `COc1ccc(-c2ccc3c(=O)[nH]cc(Cl)c3c2)c2cc(C(F)(F)F)nn12` [Example 60, 4-Chloro-6-(7-methoxy-2-trifluoromethylpyrazolo[1,5-a]pyridin-4-yl)isoquinolin-1(2H)-one], the values for the IC50 in test [1] and in test [2] were below 0.01 µmol/L and above 1000 nM, respectively. For the same molecule, in test [3], the inhibition in vivo at 3 mg/kg was at least 60%.

As for `COc1ccc(-c2ccc3c(c2)CCNC3=O)c2c(Cl)c(C(F)(F)F)nn12` [Example 62, 6-(3-Chloro-7-methoxy-2-trifluoromethylpyrazolo[1,5-a]pyridin-4-yl)-3,4-dihydroisoquinolin-1(2H)-one], the IC50 in test [1] is below 0.01 µmol/L. For the same molecule, the inhibition in vivo at 3 mg/kg in test [3] is at least 60%.

As to `CNc1ccc(-c2ccc3c(c2)CCNC3=O)c2cc(C(F)(F)F)nn12` [Example 63, 6-(7-Methylamino-2-trifluoromethylpyrazolo[1,5-a]pyridin-4-yl)-3,4-dihydroisoquinolin-1(2H)-one], the IC50 in test [1] is below 0.01 µmol/L; in test [2] it was above 1000 nM. Besides, the inhibition in vivo at 3 mg/kg in test [3] was at least 60%.

With `CNc1ccc(-c2ccc3[nH]c(=O)ccc3c2)c2cc(C(F)(F)F)nn12` [Example 64, 6-(7-Methylamino-2-trifluoromethylpyrazolo[1,5-a]pyridin-4-yl)quinolin-2(1H)-one], the values for the IC50 in test [1] and in test [2] were below 0.01 µmol/L and above 1000 nM, respectively. Also, the inhibition in vivo at 3 mg/kg in test [3] was at least 60%.

On to `COc1ccc(-c2ccc3[nH]c(=O)ccc3c2)n2c(Cl)c(C(F)(F)F)nc12` [Example 89, 6-(3-Chloro-8-methoxy-2-(trifluoromethyl)imidazo[1,2-a]pyridin-5-yl)quinolin-2(1H)-one], for which the IC50 in test [1] is below 0.01 µmol/L; in test [2], above 1000 nM. Further, the inhibition in vivo at 3 mg/kg in test [3] was at least 60%.

Take `COc1ccc(-c2ccc3c(c2)CCC(=O)N3C)c2cc(C(F)(F)F)nn12` [Example 102, 6-(7-Methoxy-2-trifluoromethylpyrazolo[1,5-a]pyridin-4-yl)-1-methyl-3,4-dihydroquinolin-2(1H)-one]: the figures for the IC50 in test [1] and in test [2] were 0.01 to 0.1 µmol/L and above 1000 nM, respectively. Besides, in test [3], the inhibition in vivo at 3 mg/kg is at least 60%.

Turning to `COc1ccc(-c2ccc3c(ccc(=O)n3C)c2)c2c(Cl)c(C(F)(F)F)nn12` [Example 115, 6-(3-Chloro-7-methoxy-2-trifluoromethylpyrazolo[1,5-a]pyridin-4-yl)-1-methylquinolin-2(1H)-one], the IC50 in test [1] was below 0.01 µmol/L; in test [2] it was above 1000 nM. For the same molecule, the inhibition in vivo at 3 mg/kg in test [3] was at least 60%.

In the case of `COc1ccc(-c2ccc3c(c2)CCNC3=O)c2cc(C3CC3)nn12` [Example 121, 6-(2-Cyclopropyl-7-methoxypyrazolo[1,5-a]pyridin-4-yl)-3,4-dihydroisoquinolin-1(2H)-one], the values for the IC50 in test [1] and in test [2] were 0.01 to 0.1 µmol/L and above 1000 nM, respectively. Further, the inhibition in vivo at 3 mg/kg in test [3] is at least 60%.

Consider `Nc1ccc(-c2ccc3c(=O)[nH]cc(Cl)c3c2)c2cc(C(F)(F)F)nn12` [Example 141, 6-(7-Amino-2-trifluoromethylpyrazolo[1,5-a]pyridin-4-yl)-4-chloro isoquinolin-1(2H)-one], for which the IC50 in test [1] was in the range of 0.01 to 0.1 µmol/L.

As to `CNc1ccc(-c2ccc3[nH]c(=O)ccc3c2)n2c(Cl)c(C(F)(F)F)nc12` [Example 142, 6-(3-Chloro-8-methylamino-2-trifluoromethylimidazo[1,2-a]pyridin-5-yl)quinolin-2(1H)-one], the IC50 in test [1] is below 0.01 µmol/L; in test [2] it was above 1000 nM. Moreover, in test [3], the inhibition in vivo at 3 mg/kg was at least 60%.

Turning to `CNc1ccc(-c2ccc3c(c2)CCNC3=O)n2c(Cl)c(C(F)(F)F)nc12` [Example 143, 6-(3-Chloro-8-methylamino-2-trifluoromethylimidazo[1,2-a]pyridin-5-yl)-3,4-dihydroisoquinolin-1(2H)-one], the IC50 is below 0.01 µmol/L in test [1] and above 1000 nM in test [2]. Besides, the inhibition in vivo at 3 mg/kg in test [3] was at least 60%.

As for `CNc1ccc(-c2ccc3c(=O)[nH]cc(Cl)c3c2)n2cc(C(F)(F)F)nc12` [Example 144, 4-Chloro-6-(8-(methylamino)-2-trifluoromethylimidazo[1,2-a]pyridin-5-yl)isoquinolin-1(2H)-one], the IC50 in test [1] is below 0.01 µmol/L.

As to `CNc1ccc(-c2ccc3c(=O)[nH]cc(Cl)c3c2)n2c(Cl)c(C(F)(F)F)nc12` [Example 145, 4-Chloro-6-(3-chloro-8-(methylamino)-2-trifluoromethylimidazo[1,2-a]pyridin-5-yl)isoquinolin-1(2H)-one], the IC50 in test [1] is below 0.01 µmol/L.

Take `Nc1ccc(-c2ccc3c(=O)[nH]cc(Cl)c3c2)n2cc(C(F)(F)F)nc12` [Example 146, 6-(8-Amino-2-trifluoromethylimidazo[1,2-a]pyridin-5-yl)-4-chloro-isoquinolin-1(2H)-one]: the IC50 in test [1] lay within 0.01 to 0.1 µmol/L.
